Test results: article PMC2923446 (Virology, 2009)
No end group written: not given here.

Key:
mouse corneas = conditions: applied at a concentration of 6.1 mM; ref Akkarawongsa et al., 2006; cited from earlier work
vMJ343 = conditions: 1 h
HeLa cells [1] = experiment: Cytotoxicity after low pH wash; format: cell-based; conditions: PBS pH 7 or 5, 150 μM EB 1 hr 37°C, n = 6
HeLa or Vero cells = conditions: ref Akkarawongsa et al., 2006; cited from earlier work
[2] = test system: recombinant vaccinia virus vMJ343; conditions: 1 h
HeLa cells [3] = conditions: concentrations as high as 100 μM; ref Akkarawongsa et al., 2006; cited from earlier work
Vaccinia virus = conditions: 1 h
Vero cells = conditions: concentrations as high as 100 μM; ref Akkarawongsa et al., 2006; cited from earlier work

Sequence	Cytotoxic effects on mouse corneas (mouse corneas)	EC50 (vMJ343)	Toxicity of low pH treatment and subsequent EB exposure (HeLa cells [1])	CC50 (50% cytotoxic concentration) (HeLa or Vero cells)	EC50 [2]	Cytotoxicity to HeLa cells (HeLa cells [3])	EC50 (Vaccinia virus)	Cytotoxicity to Vero cells (Vero cells)
RRKKAAVALLPAVLLALLAP [EB]	no cytotoxic effects	~45 µM	not toxic to the cells	>100 µM	45 µM	not cytotoxic	15 µM	not cytotoxic
RRKKLAALPLVLAAPLAVLA [EBX, reference compound]				>100 µM			150 µM	
